Reference: US20230210116A1, “HONEYBEE REPELLENT” (EARTH CORPORATION, priority 2020, published 2023)

Legend:
honeybees = assay: Test for Confirmation of Effect from Combined Use with Pesticide 1, 2: number of dead honeybees; format: in vivo, western honeybees; conditions: for Number of dead honeybees: of 50 honeybees; for honeybees of the tested population that had died: test zone 1
Excerpt: (§1) Cinnamyl alcohol was used as the active ingredient of the honeybee repellent proposed by the present invention, while dinotefuran was used as the pesticide.
(§2) As the test sample representing the pesticide alone, a 0.01% by weight per volume ethanol solution of dinotefuran was used.
(§3) (2) Preparation of Feeding Stations and Water Stations 2 cotton pads (80 mm×170 mm) were layered on a lid of KP cup (150 mm in diameter) and the cotton pads were impregnated with 40% sugar water (80 g), after which two disposable wooden chopsticks (80 mm in length) were placed as “landing areas,” for use as “test insect (honeybee, stink bug) feeding station A.”
(§4) Also, equivalents of feeding station A above, except that water (80 g) was impregnated instead of 40% sugar water (80 g), were used as “water stations.”
(§5) “Test insect (honeybee, stink bug) feeding station A,” whose cotton pads were sprayed uniformly with 5 mL (containing 0.5 mg of dinotefuran) of the 0.01% by weight per volume ethanol solution of dinotefuran, was used as “test insect (honeybee, stink bug) feeding station B.”
(§6) “Test insect (honeybee, stink bug) feeding station A,” whose cotton pads were sprayed uniformly with 5 mL (containing 5 mg of cinnamyl alcohol and 0.5 mg of dinotefuran) of the mixed ethanol solution (0.1% by weight per volume of cinnamyl alcohol, 0.01% by weight per volume of dinotefuran), was used as “test insect (honeybee, stink bug) feeding station C.”
(§7) 3 spaces (80 cm×80 cm×80 cm, 25° C.) covered with nylon gauze were designated as “untreated zone” in which a water station and feeding station A were installed, “test zone 1” in which a water station and feeding stations A, B were installed, and “test zone 2” in which a water station and feeding stations A, C were installed.
(§8) In each of these “untreated zone,” “test zone 1,” and “test zone 2,” 50 honeybees (western honeybees) and 10 stink bugs (southern green stink bugs) were released and the number of dead honeybees and that of dead stink bugs were checked at the start of testing as well as 3 hours, 18 hours, and 20 hours after the start of testing.
(§9) Carvacrol was used as the active ingredient of the honeybee repellent proposed by the present invention, while clothianidin or fipronil was used as the pesticide.
As a test sample representing a combined use of the honeybee repellent proposed by the present invention and the pesticide, a mixed ethanol solution containing carvacrol and clothianidin (0.1% by weight per volume of carvacrol and 0.01% by weight per volume of clothianidin) or mixed ethanol solution containing carvacrol and fipronil (0.1% by weight per volume of carvacrol and 0.01% by weight per volume of fipronil) was used.
As a test sample representing the pesticide alone, a 0.01% by weight per volume ethanol solution of clothianidin or 0.01% by weight per volume ethanol solution of fipronil was used.
In the same manner as in <Test for Confirmation of Effect from Combined Use with Pesticide 1> above, the number of deaths among 50 honeybees (western honeybees) and that among 10 stink bugs (southern green stink bugs) were checked in each of the “untreated zone,” “test zone 1,” and “test zone 2.” Based on the results of <Test for Confirmation of Effect from Combined Use with Pesticide 1> above, the test was terminated when the number of dead honeybees in “test zone 1” reached around one half the tested population.

stink bugs = assay: Test for Confirmation of Effect from Combined Use with Pesticide 1, 2: number of dead stink bugs; format: in vivo, southern green stink bugs; conditions: of 10 stink bugs
Excerpt: as §1, §2, §3, §4, §5, §6, §7, §8, §9
As a test sample representing a combined use of the honeybee repellent proposed by the present invention and the pesticide, a mixed ethanol solution containing carvacrol and clothianidin (0.1% by weight per volume of carvacrol and 0.01% by weight per volume of clothianidin) or mixed ethanol solution containing carvacrol and fipronil (0.1% by weight per volume of carvacrol and 0.01% by weight per volume of fipronil) was used. […]

[1] = 0 h (start of testing), 0.01% w/v pesticide, with or without 0.1% w/v repelling component, 5 mL on feeding station
[2] = 3 hours after the start of test

Row | SMILES | Number of dead honeybees (honeybees; [1]) | Number of dead honeybees (honeybees; 1 h) | Number of dead honeybees (honeybees; 2 h) | Number of dead honeybees (honeybees; 3 h) | honeybees of the tested population that had died (honeybees; [2]) | Number of dead honeybees (honeybees; 18 h) | Number of dead honeybees (honeybees; 20 h) | honeybees of the tested population that had died (honeybees; 20 hours after the start of testing) | Number of dead stink bugs (stink bugs; 0 h (start of testing)) | Number of dead stink bugs (stink bugs; 3 h) | Number of dead stink bugs (stink bugs; 18 h) | Number of dead stink bugs (stink bugs; 20 h)
1 | CN/C(=N\[N+](=O)[O-])NCc1cnc(Cl)s1 [clothianidin] | 0 | 11 | 18 | 39 | approx. 60% |  |  |  |  |  |  | 
2 | CN/C(=N/CC1CCOC1)N[N+](=O)[O-] (stereo not drawn) [dinotefuran] | 0 |  |  | 1 |  | 3 | 21 | approx. 40% | 0 | 2 | 5 | 6
3 | N#Cc1nn(-c2c(Cl)cc(C(F)(F)F)cc2Cl)c(N)c1[S+]([O-])C(F)(F)F (stereo not drawn) [fipronil] | 0 |  | 14 | 32 | approx. 60% |  |  |  |  |  |  | 
